pIC50: −log10 of the molar value.
target: mouse TRPM3α2 (mTRPM3) ion channel (Mus musculus (Mouse), UniProt J9SQF3); assay: TRPM3 ion channel driven Ca2+ uptake, Fluo-4 AM assay, mTRPM3alpha2 overexpressing flip-in HEK293 cells stimulated with pregnenolone sulfate; assay type: cell-based; conditions: PS (50 μM) stimulated, cpds. 500-599
Outline: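 Read-out is Ca2+ influx via Fluo-4 AM fluorescence at 485/535 nm, taken right after seeding ~2000 cells/well onto compound with 50 μM PS. Inhibition computed from RFU between vehicle-stimulated and positive-control-inhibitor wells; cells were mTRPM3α2-overexpressing flip-in HEK293.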

mouse TRPM3α2 (mTRPM3) ion channel, sequence (J9SQF3 other isoform, or with tags, fused parts or gaps): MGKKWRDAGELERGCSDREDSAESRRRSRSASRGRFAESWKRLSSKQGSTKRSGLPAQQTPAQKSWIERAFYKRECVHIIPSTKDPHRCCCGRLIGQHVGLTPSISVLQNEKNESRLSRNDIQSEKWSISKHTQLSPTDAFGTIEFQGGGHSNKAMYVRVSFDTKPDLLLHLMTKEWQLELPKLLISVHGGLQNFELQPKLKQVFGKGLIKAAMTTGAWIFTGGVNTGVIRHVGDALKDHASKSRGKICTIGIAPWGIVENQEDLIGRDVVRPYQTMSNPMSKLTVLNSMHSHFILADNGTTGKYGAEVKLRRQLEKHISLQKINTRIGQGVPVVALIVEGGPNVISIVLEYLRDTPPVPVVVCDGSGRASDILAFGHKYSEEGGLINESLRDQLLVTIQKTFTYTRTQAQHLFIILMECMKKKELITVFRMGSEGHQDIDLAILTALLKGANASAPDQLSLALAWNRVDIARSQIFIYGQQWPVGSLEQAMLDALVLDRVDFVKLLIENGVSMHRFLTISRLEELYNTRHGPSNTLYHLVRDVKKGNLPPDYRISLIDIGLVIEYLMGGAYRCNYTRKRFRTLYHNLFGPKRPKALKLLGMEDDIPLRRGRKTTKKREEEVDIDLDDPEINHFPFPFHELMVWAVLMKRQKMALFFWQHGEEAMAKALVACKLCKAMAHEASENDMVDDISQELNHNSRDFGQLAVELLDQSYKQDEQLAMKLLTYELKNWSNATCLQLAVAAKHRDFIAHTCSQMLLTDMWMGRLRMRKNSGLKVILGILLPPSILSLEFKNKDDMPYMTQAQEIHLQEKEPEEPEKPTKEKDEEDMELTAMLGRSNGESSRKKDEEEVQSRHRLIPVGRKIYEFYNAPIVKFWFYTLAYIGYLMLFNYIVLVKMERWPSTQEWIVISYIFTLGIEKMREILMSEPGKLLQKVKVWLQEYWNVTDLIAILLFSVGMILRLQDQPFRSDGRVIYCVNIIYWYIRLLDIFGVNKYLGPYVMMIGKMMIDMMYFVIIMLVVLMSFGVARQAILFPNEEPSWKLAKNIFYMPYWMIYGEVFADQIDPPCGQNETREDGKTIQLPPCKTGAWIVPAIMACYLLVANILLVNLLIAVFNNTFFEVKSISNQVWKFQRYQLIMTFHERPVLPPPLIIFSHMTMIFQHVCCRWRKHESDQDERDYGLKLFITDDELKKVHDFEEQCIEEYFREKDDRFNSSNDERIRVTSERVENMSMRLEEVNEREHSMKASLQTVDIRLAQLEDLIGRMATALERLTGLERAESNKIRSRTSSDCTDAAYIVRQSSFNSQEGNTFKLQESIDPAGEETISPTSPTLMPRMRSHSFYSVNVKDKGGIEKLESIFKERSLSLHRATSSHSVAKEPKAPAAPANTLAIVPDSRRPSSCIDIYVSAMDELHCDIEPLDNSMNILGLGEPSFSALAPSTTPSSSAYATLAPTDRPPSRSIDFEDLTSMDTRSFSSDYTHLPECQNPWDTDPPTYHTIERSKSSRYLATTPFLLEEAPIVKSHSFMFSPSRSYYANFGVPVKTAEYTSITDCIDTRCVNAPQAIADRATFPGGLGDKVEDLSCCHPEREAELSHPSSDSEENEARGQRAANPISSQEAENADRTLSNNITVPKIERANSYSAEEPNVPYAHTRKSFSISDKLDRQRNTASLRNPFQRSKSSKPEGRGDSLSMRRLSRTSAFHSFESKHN

`Cc1ncc(COc2ccc3oc(C)c(C(=O)NCC(C)(C)F)c3c2)s1` [compound 504, N-(2-fluoro-2-methylpropyl)-2-methyl-5-((2-methylthiazol-5-yl)methoxy)benzofuran-3-carboxamide] and `Cc1ncsc1COc1ccc2oc(C)c(C(=O)NCC(C)(C)F)c2c1` [compound 505, N-(2-fluoro-2-methylpropyl)-2-methyl-5-((4-methylthiazol-5-yl)methoxy)benzofuran-3-carboxamide] cannot be ordered by pIC50: greater than 6.00 for the first, greater than 6.00 for the second.

`Cc1ncsc1COc1ccc2oc(C)c(C(=O)NCC(C)(C)O)c2c1` [compound 506, N-(2-hydroxy-2-methylpropyl)-2-methyl-5-((4-methylthiazol-5-yl)methoxy)benzofuran-3-carboxamide] and `Cc1ncsc1COc1ccc2oc(C)c(C(=O)NCC(C)(C)C(N)=O)c2c1` [compound 576, N-(3-amino-2,2-dimethyl-3-oxopropyl)-2-methyl-5-((4-methylthiazol-5-yl)methoxy)benzofuran-3-carboxamide] cannot be ordered by pIC50: greater than 6.00 for the first, greater than 6.00 for the second.

`Cc1ncsc1COc1ccc2oc(C)c(C(=O)NC(=O)C3(N(C)C)COC3)c2c1` [compound 508, N-(3-(dimethylamino)oxetane-3-carbonyl)-2-methyl-5-((4-methylthiazol-5-yl)methoxy)benzofuran-3-carboxamide] and `Cc1ncsc1COc1ccc2oc(C)c(C(=O)NC3(C(=O)N(C)C)COC3)c2c1` [compound 509, N-(3-(dimethylcarbamoyl)oxetan-3-yl)-2-methyl-5-((4-methylthiazol-5-yl)methoxy)benzofuran-3-carboxamide] cannot be ordered by pIC50: greater than 6.00 for the first, greater than 6.00 for the second.

`Cc1oc2ccc(OCc3ccnn3C)cc2c1C(=O)NC1(CO)COC1` [compound 524, N-(3-(hydroxymethyl)oxetan-3-yl)-2-methyl-5-((1-methyl-1H-pyrazol-5-yl)methoxy)benzofuran-3-carboxamide] and `Cc1oc2ccc(OCc3ccnn3C)cc2c1C(=O)NC1(C(N)=O)COC1` [compound 579, N-(3-carbamoyloxetan-3-yl)-2-methyl-5-((1-methyl-1H-pyrazol-5-yl)methoxy)benzofuran-3-carboxamide] cannot be ordered by pIC50: greater than 6.00 for the first, greater than 6.00 for the second.

`Cc1ncc(COc2ccc3oc(C)c(C(=O)NC4(CO)COC4)c3c2)s1` [compound 525, N-(3-(hydroxymethyl)oxetan-3-yl)-2-methyl-5-((2-methylthiazol-5-yl)methoxy)benzofuran-3-carboxamide] and `Cc1ncc(COc2ccc3oc(C)c(C(=O)NC4(C(N)=O)COC4)c3c2)s1` [compound 580, N-(3-carbamoyloxetan-3-yl)-2-methyl-5-((2-methylthiazol-5-yl)methoxy)benzofuran-3-carboxamide] cannot be ordered by pIC50: greater than 6.00 for the first, greater than 6.00 for the second.

`Cc1oc2ccc(OCc3ccccn3)cc2c1C(=O)NC1(CO)COC1` [compound 526, N-(3-(hydroxymethyl)oxetan-3-yl)-2-methyl-5-(pyridin-2-ylmethoxy)benzofuran-3-carboxamide] and `Cc1oc2ccc(OCc3ccccn3)cc2c1C(=O)NC1(C(N)=O)COC1` [compound 581, N-(3-carbamoyloxetan-3-yl)-2-methyl-5-(pyridin-2-ylmethoxy)benzofuran-3-carboxamide] cannot be ordered by pIC50: greater than 6.00 for the first, greater than 6.00 for the second.

`Cc1oc2ccc(OCc3nccs3)cc2c1C(=O)NC1(CO)COC1` [compound 527, N-(3-(hydroxymethyl)oxetan-3-yl)-2-methyl-5-(thiazol-2-ylmethoxy)benzofuran-3-carboxamide] and `Cc1oc2ccc(OCc3nccs3)cc2c1C(=O)NC1(C(N)=O)COC1` [compound 582, N-(3-carbamoyloxetan-3-yl)-2-methyl-5-(thiazol-2-ylmethoxy)benzofuran-3-carboxamide] cannot be ordered by pIC50: greater than 6.00 for the first, greater than 6.00 for the second.

`COc1ncccc1COc1ccc2oc(C)c(C(=O)NC3(CO)COC3)c2c1` [compound 528, N-(3-(hydroxymethyl)oxetan-3-yl)-5-((2-methoxypyridin-3-yl)methoxy)-2-methylbenzofuran-3-carboxamide] and `COc1ncccc1COc1ccc2oc(C)c(C(=O)NC3(C(N)=O)COC3)c2c1` [compound 586, N-(3-carbamoyloxetan-3-yl)-5-((2-methoxypyridin-3-yl)methoxy)-2-methylbenzofuran-3-carboxamide] cannot be ordered by pIC50: greater than 6.00 for the first, greater than 6.00 for the second.

Compared with `Cc1ncsc1COc1ccc2oc(C)c(C(=O)N(C)C3(CO)COC3)c2c1` [compound 529, N-(3-(hydroxymethyl)oxetan-3-yl)-N.2-dimethyl-5-((4-methylthiazol-5-yl)methoxy)benzofuran-3-carboxamide], `Cc1ncsc1COc1ccc2oc(C)c(C(=O)N(C)C3(C(N)=O)COC3)c2c1` [compound 589, N-(3-carbamoyloxetan-3-yl)-N,2-dimethyl-5-((4-methylthiazol-5-yl)methoxy)benzofuran-3-carboxamide] is lower in pIC50: greater than 6.00 for the first, 4.70 to 6.00 for the second. The first is the more potent here.

`Cc1ncsc1COc1ccc2oc(C)c(C(=O)NC3(CO)CC(F)(F)C3)c2c1` [compound 537, N-(3,3-difluoro-1-(hydroxymethyl)cyclobutyl)-2-methyl-5-((4-methylthiazol-5-yl)methoxy)benzofuran-3-carboxamide] and `Cc1ncsc1COc1ccc2oc(C)c(C(=O)NCCC(F)F)c2c1` [compound 574, N-(3,3-difluoropropyl)-2-methyl-5-((4-methylthiazol-5-yl)methoxy)benzofuran-3-carboxamide] cannot be ordered by pIC50: greater than 6.00 for the first, greater than 6.00 for the second.

`Cc1ncsc1COc1ccc2oc(C(F)F)c(C(=O)NC3(C(N)=O)COC3)c2c1` [compound 577, N-(3-carbamoyloxetan-3-yl)-2-(difluoromethyl)-5-((4-methylthiazol-5-yl)methoxy)benzofuran-3-carboxamide] and `Cc1ncsc1COc1cc(F)c2oc(C)c(C(=O)NC3(C(N)=O)COC3)c2c1` [compound 588, N-(3-carbamoyloxetan-3-yl)-7-fluoro-2-methyl-5-((4-methylthiazol-5-yl)methoxy)benzofuran-3c-arboxamide] cannot be ordered by pIC50: greater than 6.00 for the first, greater than 6.00 for the second.

`Cc1ncsc1COc1ccc2oc(C)c(C(=O)NC3(C(N)=O)COC3)c2c1F` [compound 583, N-(3-carbamoyloxetan-3-yl)-4-fluoro-2-methyl-5-((4-methylthiazol-5-yl)methoxy)benzofuran-3-carboxamide] and `Cc1ncsc1COc1cc2c(C(=O)NC3(C(N)=O)COC3)c(C)oc2cc1F` [compound 587, N-(3-carbamoyloxetan-3-yl)-6-fluoro-2-methyl-5-((4-methylthiazol-5-yl)methoxy)benzofuran-3-carboxamide] cannot be ordered by pIC50: greater than 6.00 for the first, greater than 6.00 for the second.

`Cc1oc2ccc(OCc3cccnc3C(F)F)cc2c1C(=O)NC1(C(N)=O)COC1` [compound 584, N-(3-carbamoyloxetan-3-yl)-5-((2-(difluoromethyl)pyridin-3-yl)methoxy)-2-methylbenzofuran-3-carboxamide] and `Cc1oc2ccc(OCc3cccnc3O)cc2c1C(=O)NC1(C(N)=O)COC1` [compound 585, N-(3-carbamoyloxetan-3-yl)-5-((2-hydroxypyridin-3-yl)methoxy)-2-methylbenzofuran-3-carboxamide] cannot be ordered by pIC50: greater than 6.00 for the first, greater than 6.00 for the second.

same assay, conditions: PS (50 μM) stimulated, cpds. 608-666

`Cc1ncsc1COc1ccc2oc(C)c(C(=O)NCC(C)(C)CO)c2c1` [compound 602, N-(3-hydroxy-2,2-dimethylpropyl)-2-methyl-5-((4-methylthiazol-5-yl)methoxy)benzofuran-3-carboxamide] and `Cc1ncc(COc2ccc3oc(C)c(C(=O)NC4(CO)CCOCC4)c3c2)s1` [compound 613, N-(4-(hydroxymethyl)tetrahydro-2H-pyran-4-yl)-2-methyl-5-((2-methylthiazol-5-yl)methoxy)benzofuran-3-carboxamide] cannot be ordered by pIC50: greater than 6.00 for the first, greater than 6.00 for the second.

`Cc1oc2ccc(OCc3cn(C)nn3)cc2c1C(=O)NC1(CO)CCOCC1` [compound 604, N-(4-(hydroxymethyl)tetrahydro-2H-pyran-4-yl) -2-methyl-5-((1-methyl-1H-1,2,3-triazol-4-yl)methoxy)benzofuran-3-carboxamide] and `Cc1oc2ccc(OCc3cnnn3C)cc2c1C(=O)NC1(CO)CCOCC1` [compound 605, N-(4-(hydroxymethyl)tetrahydro-2H-pyran-4-yl)-2-methyl-5-((1-methyl-1H-1,2,3-triazol-5-yl)methoxy)benzofuran-3-carboxamide] cannot be ordered by pIC50: less than 4.70 for the first, less than 4.70 for the second.

`Cc1oc2ccc(OCc3ccnn3C)cc2c1C(=O)NC1(CO)CCOCC1` [compound 608, N-(4-(hydroxymethyl)tetrahydro-2H-pyran-4-yl)-2-methyl-5-((1-methyl-1H-pyrazol-5-yl)methoxy)benzofuran-3-carboxamide] and `Cc1ncccc1COc1ccc2oc(C)c(C(=O)NC3(CO)CCOCC3)c2c1` [compound 611, N-(4-(hydroxymethyl)tetrahydro-2H-pyran-4-yl)-2-methyl-5-((2-methylpyridin-3-yl)methoxy)benzofuran-3-carboxamide] cannot be ordered by pIC50: greater than 6.00 for the first, greater than 6.00 for the second.

`Cc1oc2ccc(OCc3ccc[nH]c3=O)cc2c1C(=O)NC1(CO)CCOCC1` [compound 614, N-(4-(hydroxymethyl)tetrahydro-2H-pyran-4-yl)-2-methyl-5-((2-oxo-1,2-dihydropyridin-3-yl)methoxy)benzofuran-3-carboxamide] and `Cc1oc2ccc(OCc3c[nH]nc3C(F)(F)F)cc2c1C(=O)NC1(CO)CCOCC1` [compound 615, N-(4-(hydroxymethyl)tetrahydro-2H-pyran-4-yl)-2-methyl-5-((3-(trifluoromethyl)-1H-pyrazol-4-yl)methoxy)benzofuran-3-carboxamide] cannot be ordered by pIC50: greater than 6.00 for the first, greater than 6.00 for the second.

`Cc1cc(COc2ccc3oc(C)c(C(=O)NC4(CO)CCOCC4)c3c2)no1` [compound 618, N-(4-(hydroxymethyl)tetrahydro-2H-pyran-4-yl)-2-methyl-5-((5-methylisoxazol-3-yl)methoxy)benzofuran-3-carboxamide] and `Cc1cnc(COc2ccc3oc(C)c(C(=O)NC4(CO)CCOCC4)c3c2)s1` [compound 620, N-(4-(hydroxymethyl)tetrahydro-2H-pyran-4-yl)-2-methyl-5-((5-methylthiazol-2-yl)methoxy)benzofuran-3-carboxamide] cannot be ordered by pIC50: greater than 6.00 for the first, greater than 6.00 for the second.
